According to ChEMBL document CHEMBL1148418, “BMS-201620: a selective beta 3 agonist” (Bioorg Med Chem Lett, 2004):

tested on: Monkey; experiment: Compound was tested for in vivo lipolysis in african green monkeys after iv administration; assay type: functional; conditions: Cercopithecidae, in Primates

| Compound | ED50 |
| --- | --- |
| CCOP(=O)(Cc1ccc(NC(=O)[C@@](C)(NC[C@H](O)c2ccc(O)c(NS(C)(=O)=O)c2)c2ccc(OC)cc2)cc1)OCC | 0.1 mg/kg |
| COc1ccc([C@H](NC[C@H](O)c2ccc(O)c(NS(C)(=O)=O)c2)C(=O)Nc2ccc3c(c2)OCO3)cc1 (stereo in doubt; 17) | 0.08 mg/kg |
| COc1ccc([C@](C)(NC[C@H](O)c2ccc(O)c(NS(C)(=O)=O)c2)C(=O)Nc2ccc(Cl)cc2)cc1 | 0.07 mg/kg |

species: Cavia porcellus; experiment: Intrinsic activity was determined using spontaneously beating guinea pig atria by measuring contraction acceleration relative to isoproterenol response; assay type: functional; conditions: not given

| Compound | IA |
| --- | --- |
| COc1ccc([C@H](NC[C@H](O)c2ccc(O)c(NS(C)(=O)=O)c2)C(=O)Nc2ccccc2)cc1 (stereo in doubt; 16) | 95% |
| COc1ccc([C@](C)(NC[C@H](O)c2ccc(O)c(NS(C)(=O)=O)c2)C(=O)Nc2ccc(C)cc2)cc1 | 90% |
| COc1ccc([C@](C)(NC[C@H](O)c2ccc(O)c(NS(C)(=O)=O)c2)C(=O)Nc2ccc3sc(C)nc3c2)cc1 | 70% |
| COc1ccc([C@](C)(NC[C@H](O)c2ccc(O)c(NS(C)(=O)=O)c2)C(=O)Nc2cccc(OC)c2)cc1 | 85% |
| CCOP(=O)(Cc1ccc(NC(=O)[C@@](C)(NC[C@H](O)c2ccc(O)c(NS(C)(=O)=O)c2)c2ccc(OC)cc2)cc1)OCC | 55% |
| COc1ccc([C@](C)(NC[C@H](O)c2ccc(O)c(NS(C)(=O)=O)c2)C(=O)Nc2cccc(OCC(=O)O)c2)cc1 | 87% |
| COc1ccc([C@](C)(NC[C@H](O)c2ccc(O)c(NS(C)(=O)=O)c2)C(=O)Nc2ccccc2OC)cc1 | 60% |
| COc1ccc([C@](C)(NC[C@H](O)c2ccc(O)c(NS(C)(=O)=O)c2)C(=O)Nc2cccc(Br)c2)cc1 | 50% |
| COc1ccc([C@](C)(NC[C@H](O)c2ccc(O)c(NS(C)(=O)=O)c2)C(=O)Nc2cccc(OCCN(C)C)c2)cc1 | 85% |
| COc1ccc([C@](C)(NC[C@H](O)c2ccc(O)c(NS(C)(=O)=O)c2)C(=O)Nc2ccc(OC)c(OC)c2)cc1 | 89% |
| COc1ccc(NC(=O)[C@@](C)(NC[C@H](O)c2ccc(O)c(NS(C)(=O)=O)c2)c2ccc(OC)cc2)cc1 | 85% |
| COc1ccc([C@](C)(NC[C@H](O)c2ccc(O)c(NS(C)(=O)=O)c2)C(=O)Nc2cccc(Cl)c2)cc1 | 50% |
| COc1ccc([C@](C)(NC[C@H](O)c2ccc(O)c(NS(C)(=O)=O)c2)C(=O)Nc2cc(Cl)cc(Cl)c2)cc1 | 13% |
| COc1ccc([C@](C)(NC[C@H](O)c2ccc(O)c(NS(C)(=O)=O)c2)C(=O)Nc2ccccc2C)cc1 | 83% |
| COc1ccc([C@](C)(NC[C@H](O)c2ccc(O)c(NS(C)(=O)=O)c2)C(=O)Nc2cccc(CN)c2)cc1 | 91% |
| COc1ccc([C@](C)(NC[C@H](O)c2ccc(O)c(NS(C)(=O)=O)c2)C(=O)Nc2cc(OC)c(OC)c(OC)c2)cc1 | 66% |
| COc1ccc([C@](C)(NC[C@H](O)c2ccc(O)c(NS(C)(=O)=O)c2)C(=O)Nc2ccc(OCC(=O)O)cc2)cc1 | 100% |
| COc1ccc([C@](C)(NC[C@H](O)c2ccc(O)c(NS(C)(=O)=O)c2)C(=O)Nc2ccc(O)cc2)cc1 | 90% |
| COc1ccc([C@](C)(NC[C@H](O)c2ccc(O)c(NS(C)(=O)=O)c2)C(=O)Nc2ccc(OCCN(C)C)cc2)cc1 | 92% |
| COc1ccc([C@H](NC[C@H](O)c2ccc(O)c(NS(C)(=O)=O)c2)C(=O)Nc2ccc3c(c2)OCO3)cc1 (stereo in doubt; 17) | 93% |
| COc1ccc([C@](C)(NC[C@H](O)c2ccc(O)c(NS(C)(=O)=O)c2)C(=O)Nc2ccc(Cl)cc2F)cc1 | 43% |
| COc1ccc([C@](C)(NC[C@H](O)c2ccc(O)c(NS(C)(=O)=O)c2)C(=O)Nc2cccc(C)c2)cc1 | 73% |
| COc1ccc([C@](C)(NC[C@H](O)c2ccc(O)c(NS(C)(=O)=O)c2)C(=O)Nc2ccc(Cl)c(Cl)c2)cc1 | 8% |
| COc1ccc([C@](C)(NC[C@H](O)c2ccc(O)c(NS(C)(=O)=O)c2)C(=O)Nc2ccc(Cl)cc2)cc1 | 62% |
| COc1ccc([C@](C)(NC[C@H](O)c2ccc(O)c(NS(C)(=O)=O)c2)C(=O)Nc2cccc(O)c2)cc1 | 96% |
| COc1ccc([C@](C)(NC[C@H](O)c2ccc(O)c(NS(C)(=O)=O)c2)C(=O)Nc2cc(Cl)c(Cl)c(Cl)c2)cc1 | 15% |
